Results published in patent publication US20200032249A1, “LABELING, ISOLATION, & ANALYSIS OF RNA FROM RARE CELL POPULATIONS” (priority 2017, published 2020).

System: MDA231 cells expressing CD/UPRT in mouse lungs
Assay: signal-to-noise ratio of Flura-tagging and TU-tagging in vivo, lung colonization xenograft, RT-PCR
Details: 250 mg/kg, 12 h post injection
Description: FIG. 3 a-g. Flura-tagging of mRNA in vivo. FIG. 3a—Schematic diagram of lung colonization xenograft assay used for evaluation of Flura-tagging/Flura-seq. Athymic mice were injected through the tail vein with 50,000 MDA231 cells expressing CD/UPRT and GFP-luciferase. Upon the development of detectable bioluminescent lung metastases (4 weeks), mice were treated with doxycycline to induce CD/UPRT expression and injected with 5-FC. Lungs were harvested, and Flura-tagged mRNAs were immunopurified. FIG. 3b—Comparison of signal-to-noise ratio of Flura-tagging and TU-tagging in vivo. Mice were injected with either 5-FC or TU, the Flura-tagged or TU-tagged mRNAs were purified 12 h post injection, and the relative fold enrichment of representative human housekeeping genes relative to representative murine housekeeping genes (mHPRT1, mLDH1, mPGK1 and mGAPDH), normalized to their corresponding unpurified inputs, were measured by RT-PCR (n=5, ±S.E.). FIG. 3c—Quantification of the number of human cells in the mouse lungs used for Flura-tagging. Half of the mouse lungs used for Flura-tagging in FIG. 3b was dissociated into single cells, and the number of RFP+ cells was quantified using flow cytometry. The total number of MDA231 cells per lung was estimated based on an assumption of 1.5×10^8 cells per mouse lung (20) (n=5). […] RNA reads were aligned to a hybrid genome containing the human and mouse genomes. […]

Nc1nc(=O)[nH]cc1F [5-FC, 5-fluorocytosine]
enrichment of human mRNAs compared to mouse mRNAs: over 1000 fold
